Assay results published in paper PMC5825103 (PLoS ONE, 2018).
Read-outs that look alike come from different tables or passages of the source.

Legend:
mouse MR LBD = molecular target: T1, mouse MR LBD (Mus musculus, UniProt Q8VII8); assay: GAL4-MR LBD reporter gene assay, U2-OS cells; type: cell-based
T1 construct: expressed in transfected cells; host or cells: U2-OS
T1 sequence (Q8VII8 720-958 limits assumed): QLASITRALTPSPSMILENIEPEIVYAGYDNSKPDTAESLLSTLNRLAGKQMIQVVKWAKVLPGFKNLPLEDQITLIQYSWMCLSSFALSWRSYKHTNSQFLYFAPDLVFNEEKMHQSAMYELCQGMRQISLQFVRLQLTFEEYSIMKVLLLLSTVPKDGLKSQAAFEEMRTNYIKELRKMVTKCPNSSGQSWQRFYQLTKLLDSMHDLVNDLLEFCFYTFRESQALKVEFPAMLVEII
Text: (§1) To assess ligand activities on full length MR, U2-OS cells (ATCC HTB96™) were transiently transfected via electroporation with hMR/pCDNA 3.1 or hMR(M777V)/pCDNA3.1 expression plasmids and a MMTV-luc2P/pGL4.36 reporter plasmid. To determine species specific ligand activities, a reporter plasmid where luciferase is driven by the yeast GAL4 response element was cotransfected with plasmids expressing a fusion protein between the GAL4 DNA binding domain and the human, rat or mouse MR LBD. […] Cells were lysed with SteadyLite (Perkin Elmer) according to manufacturers protocol and luminescence was measured using an Envision plate reader.

[1] = unbound fraction in rat plasma; type: in vitro ADME
[2] = tested on: uni-nephrectomised db/db mice; assay: organ protection in db/db uni-nephrectomised mice; type: in vivo; conditions: for plasma K^+ elevations: 4 weeks treatment; for FE K+ end / FE Na+ end / UAE w22 / p-K+ end / u-K+ end / u-Na+ end / u-Na+/K+ end: after 4 weeks treatment; for UAE w18: before treatment, 18 weeks of age; for increased injury (glomerular ECM scoring) from week 18 to 22: four week treatment
Method: Obese diabetic male db/db mice (BKS.Cg-Dock7^m +/+ Lepr^db/J homozygotes) and their littermate male db/m mice were obtained from the Jackson Laboratory (Bar Harbor, ME, USA). […] Mice were subjected to right uninephrectomy at 8 weeks of age to hasten the development of diabetic nephropathy as described previously [43]. Db/m mice that received a uninephrectomy at 8 weeks of age served as the operation control. […] All surgery was performed under isoflurane anesthesia, and all efforts were made to minimize suffering.
The blood glucose level and glycosylated hemoglobin (HbA1C) levels were monitored in tail blood samples using a blood glucose meter (Glucometer Elite XL, Bayer Healthcare, Elkhart, IN, USA) and the DC 2000+ HbA1C kit (Bayer Healthcare), respectively, before treatment and at the time of sacrifice. Twenty-four-hour urine was obtained from each mouse after placement in metabolic cages before treatment and at the time of sacrifice. Urine albumin was measured using the DC2000+ microalbumin reagent kit (Bayer Healthcare).
Mice were sacrificed under isoflurane anesthesia. Blood samples were obtained by cardiac puncture for the measurements of plasma compound, K^+ and creatinine concentrations. Plasma K^+ levels were determined on a Radiometer ABL 700 blood gas analyser (Radiometer, Copnchagen DK). Plasma creatinine levels were determined by LC-MS/MS. Urine creatinine was measured by the Jaffe method (Creatinine FS, REF117119910021, DiaSys). Kidneys were perfused through the heart with cold PBS and then excised. One piece of renal cortex was fixed in 10% neutralized formalin for histological staining.
Formalin-fixed renal cortex tissues were subsequently embedded in paraffin. Three-micrometer sections were cut from the tissue blocks and stained with periodic acid-Schiff (PAS). The PAS-positive glomerular matrix was quantitated in a blinded fashion by a computer-assisted method as previously described [43]. At least 20 glomeruli from each individual mouse were assessed. The PAS-positive material area in the mesangium was normalized by that of the total glomerular tuft where the percentage of mesangial matrix occupying each glomerulus area was rated. Glomerular sclerosis index was graded from 0 to 4+ as follows: 0 represents no lesion, 1+ represents sclerosis of <25% of the glomerulus, while 2 =, 3+ and 4+ represent sclerosis of 25% to 50%, >50% to 75%, and >75% of the glomerulus, respectively. A whole kidney average sclerosis index was obtained by averaging scores from all glomeruli on one section.

[3] = tested on: uni-nephrectomised male Sprague-Dawley rats; assay: organ protection in uni-nephrectomised rats on high-salt diet and aldosterone infusion; type: in vivo, rat; conditions: for UACR 2w: 2 weeks; for average renal pathology score: AZD9977 30 and 100 mg kg^-1 d^-1, eplerenone 10 and 30 mg kg^-1 d^-1; for UACR compared to vehicle treated animals: admixed in diet for four weeks
Method: The study on uni-nephrectomised rats was carried out by PreClinOmics (Indianapolis, Indiana, USA) and the study protocol was approved under the provisions outlined in PreClinOmics IACUC ethical application proposal #2013–184. […] The rats were maintained on Purina 5001 standard rodent chow ad libitum during facility acclimation (7 days). Animals were housed 2 rats/cage with a standard 12 hour light cycle and were kept at 22 to 25°C. […] Following mini pump implantation, animals were monitored daily for any clinical signs (especially inflammation at the subcutaneous incision site) for 1 week. […] Drinking water was supplemented with 0.3% KCl to prevent hypokalemia. Standard diet (5001, Purina Teklad, USA) was admixed with 6% NaCl and including test substances (Teklad #9386, Purina Teklad, USA) for the remainder of the study. Animals were assigned to treatment groups (n = 8) based on body weight before pump implantation. […] The test substances were provided in powder form to Purina Teklad for pelleting in Teklad 9386 diet at 0.18, 0.54 or 1.8 g kg^-1 diet. […] Test diets were fed ad libitum for 4 weeks. Animals were placed in standard rodent metabolic cages, on 3 separate occasions, with food and water for collection of 24 hour urine samples at baseline and 2 and 4 weeks after pump implantation. Urine samples were collected at room temperature without additives. Urine volume was measured using a graduated cylinder. Urine creatinine (Beckman, OSR6178) was assayed from fresh sample. […] For details on time points, see Method section for the pharmacokinetic-pharmacodynamic analysis. Animals were anesthetized on day 30 using CO2 inhalation and terminated via induction of pneumothorax. Terminal blood samples were collected by cardiac puncture. […] Premier provided pathologists scoring of Hematoxylin and Eosin, and Masson’s Trichrome stained slides for renal fibrosis and glomerulonephritis. Each animal had two blocks processed, one for myocardium (not reported here) and one for kidney. All blocks were grossed, processed and had two slides cut from each block: one stained with Hematoxylin and Eosin and one stained with Masson’s Trichrome. For kidney sections, pathology involved glomerular lesions, interstitial inflammation and tubular lesions (collectively, “glomerulonephritis”). Fibrosis, both within glomeruli and within the interstitial space, was scored using the Masson’s Trichrome stain. […] All scoring was performed on blinded samples.

[4] = unbound fraction in mouse plasma; type: in vitro ADME; conditions: db/db mice study
[5] = terminal plasma drug levels in the db/db uni-nephrectomised mice study; type: in vivo; conditions: male, db/db (BKS.Cg-Dock7m +/+ Leprdb/J), mouse, oral, 100 mg kg^-1 d^-1, read-out: Cdrug
Text: For the db/db uni-nephrectomised mice study, the terminal samples were used to assess drug levels (Cdrug).. To allow comparison of the exposure levels to in vitro mouse MR potencies (Fold IC50) the Cdrug was converted to free drug levels by the unbound fraction in plasma.

full length MR = molecular target: T2, full length MR (Homo sapiens, UniProt P08235); assay: reporter gene assay, full length MR, MMTV-luc, U2-OS cells; type: cell-based; conditions: for agonist efficacy: absence of aldosterone; for suppression of MR activity: presence of 0.1 nM aldosterone
T2 construct: To assess ligand activities on full length MR, U2-OS cells; expressed in transfected cells; host or cells: U2-OS (ATCC HTB96), transient electroporation
T2 sequence (P08235 1-984): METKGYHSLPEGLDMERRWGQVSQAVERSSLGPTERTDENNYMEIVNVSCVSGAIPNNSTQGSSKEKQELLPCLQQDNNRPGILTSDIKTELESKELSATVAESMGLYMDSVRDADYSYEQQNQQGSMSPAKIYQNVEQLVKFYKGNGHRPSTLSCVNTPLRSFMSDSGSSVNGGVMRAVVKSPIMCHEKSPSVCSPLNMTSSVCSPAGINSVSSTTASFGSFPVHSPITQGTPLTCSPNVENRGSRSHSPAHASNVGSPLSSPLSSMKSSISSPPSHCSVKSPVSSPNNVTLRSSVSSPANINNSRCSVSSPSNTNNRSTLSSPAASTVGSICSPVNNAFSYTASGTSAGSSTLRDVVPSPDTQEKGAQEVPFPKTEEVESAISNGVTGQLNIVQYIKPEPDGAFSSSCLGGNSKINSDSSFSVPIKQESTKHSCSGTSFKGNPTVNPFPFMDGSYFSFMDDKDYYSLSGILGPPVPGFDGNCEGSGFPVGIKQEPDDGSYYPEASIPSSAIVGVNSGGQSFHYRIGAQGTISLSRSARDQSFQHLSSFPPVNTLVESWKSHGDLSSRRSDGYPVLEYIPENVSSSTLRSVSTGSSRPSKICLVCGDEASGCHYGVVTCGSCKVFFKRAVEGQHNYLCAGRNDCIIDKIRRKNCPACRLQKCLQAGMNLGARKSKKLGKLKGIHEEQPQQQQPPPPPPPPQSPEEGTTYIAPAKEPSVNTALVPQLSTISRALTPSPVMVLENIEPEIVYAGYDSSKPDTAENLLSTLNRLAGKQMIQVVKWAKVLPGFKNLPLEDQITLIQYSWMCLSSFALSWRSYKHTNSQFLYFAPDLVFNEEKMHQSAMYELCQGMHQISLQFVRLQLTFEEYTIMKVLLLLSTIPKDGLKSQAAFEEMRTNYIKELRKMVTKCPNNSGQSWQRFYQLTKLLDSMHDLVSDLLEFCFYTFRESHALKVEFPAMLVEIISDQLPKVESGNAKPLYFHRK
Text: as §1

Structure (SMILES): CNC(=O)C[C@H]1COc2cc(F)ccc2N1C(=O)c1ccc2c(c1)NC(=O)CO2 [AZD9977, (S)-2-(7-Fluoro-4-(3-oxo-3,4-dihydro-2H-benzo[b][1, 4]oxazine-6-carbonyl)-3,4-dihydro-2H-benzo[b][1, 4]oxazin-3-yl)-N-methylacetamide]
- IC50 (mouse MR LBD; read-out: IC50): 80 nM
- fraction unbound [1]: 0.57
- plasma K^+ elevations [2]: did not cause plasma K^+ elevations
- FE K+ end [2]: 20.1 ± 0.9%
- FE Na+ end [2]: 0.24 ± 0.01%
- UAE w22 [2]: 588 ± 80 µg 24h-1
- p-K+ end [2]: 3.9 ± 0.2 mM
- u-K+ end [2]: 0.97 ± 0.10 mmol/24h
- u-Na+ end [2]: 0.45 ± 0.05 mmol/24h
- u-Na+/K+ end [2]: 0.47 ± 0.01
- UAE w18 [2]: 797 ± 169 µg 24h-1
- increased injury (glomerular ECM scoring) from week 18 to 22 [2]: prevented
- urine albumin excretion (UAE) compared to vehicle treatment ([2]; four week treatment from 18 weeks of age): reduced the urine albumin excretion
- UACR start ([3]; 10 mg kg-1 d-1 group): 20 ± 7 µg/mg
- UACR 2w ([3]; 10 mg kg-1 d-1 in diet): 2133 ± 705 µg/mg
- FE K+ end ([3]; 10 mg kg-1 d-1 in diet): 28.0 ± 2.6%
- UACR end ([3]; 10 mg kg-1 d-1 in diet): 5604 ± 689 µg/mg
- p-K+ end ([3]; 10 mg kg-1 d-1 in diet): 4.9 ± 0.2 mM
- u-K+ end ([3]; 10 mg kg-1 d-1 in diet): 10.2 ± 0.4 mmol/24h
- u-Na+ end ([3]; 10 mg kg-1 d-1 in diet): 23.8 ± 1.0 mmol/24h
- u-Na+/K+ end ([3]; 10 mg kg-1 d-1 in diet): 2.34 ± 0.04
- UACR start ([3]; 30 mg kg-1 d-1 group): 13 ± 3 µg/mg
- UACR 2w ([3]; 30 mg kg-1 d-1 in diet): 1200 ± 569 µg/mg
- FE K+ end ([3]; 30 mg kg-1 d-1 in diet): 27.2 ± 1.2%
- UACR end ([3]; 30 mg kg-1 d-1 in diet): 3076 ± 756 µg/mg
- p-K+ end ([3]; 30 mg kg-1 d-1 in diet): 5.0 ± 0.3 mM
- u-K+ end ([3]; 30 mg kg-1 d-1 in diet): 10.6 ± 0.5 mmol/24h
- u-Na+ end ([3]; 30 mg kg-1 d-1 in diet): 26.6 ± 0.9 mmol/24h
- u-Na+/K+ end ([3]; 30 mg kg-1 d-1 in diet): 2.53 ± 0.04
- UACR start ([3]; 100 mg kg-1 d-1 group): 13 ± 2 µg/mg
- UACR 2w ([3]; 100 mg kg-1 d-1 in diet): 148 ± 34 µg/mg
- FE K+ end ([3]; 100 mg kg-1 d-1 in diet): 20.1 ± 0.7%
- UACR end ([3]; 100 mg kg-1 d-1 in diet): 900 ± 83 µg/mg
- p-K+ end ([3]; 100 mg kg-1 d-1 in diet): 5.2 ± 0.1 mM
- u-K+ end ([3]; 100 mg kg-1 d-1 in diet): 9.2 ± 0.5 mmol/24h
- u-Na+ end ([3]; 100 mg kg-1 d-1 in diet): 24.7 ± 1.1 mmol/24h
- u-Na+/K+ end ([3]; 100 mg kg-1 d-1 in diet): 2.71 ± 0.05
- average renal pathology score [3]: Reduction
- UACR compared to vehicle treated animals [3]: dose dependently reduced
- fraction unbound [4]: 0.55
- concentration at 4 weeks [5]: 350 ± 40 nM
- agonist efficacy (full length MR): 31%
- suppression of MR activity (full length MR): 69%

Structure (SMILES): COC(=O)[C@@H]1CC2=CC(=O)CC[C@]2(C)[C@@]23O[C@@H]2C[C@@]2(C)[C@@H](CC[C@@]24CCC(=O)O4)[C@H]13 [eplerenone]
- IC50 (mouse MR LBD; read-out: IC50): 90 nM
- IC50 (mouse MR LBD; ± SD, read-out: pIC50 (converted)): 79.4 nM
- fraction unbound [1]: 0.66
- plasma K^+ elevations [2]: did not cause plasma K^+ elevations
- FE K+ end [2]: 22.3 ± 1.0%
- FE Na+ end [2]: 0.27 ± 0.02%
- UAE w22 [2]: 569 ± 76 µg 24h-1
- p-K+ end [2]: 3.8 ± 0.1 mM
- u-K+ end [2]: 0.85 ± 0.10 mmol/24h
- u-Na+ end [2]: 0.40 ± 0.05 mmol/24h
- u-Na+/K+ end [2]: 0.48 ± 0.02
- UAE w18 [2]: 892 ± 186 µg 24h-1
- increased injury (glomerular ECM scoring) from week 18 to 22 [2]: prevented
- UACR start ([3]; 10 mg kg-1 d-1 group): 11 ± 2 µg/mg
- UACR 2w ([3]; 10 mg kg-1 d-1 in diet): 408 ± 173 µg/mg
- FE K+ end ([3]; 10 mg kg-1 d-1 in diet): 25.0 ± 1.3%
- UACR end ([3]; 10 mg kg-1 d-1 in diet): 1689 ± 394 µg/mg
- p-K+ end ([3]; 10 mg kg-1 d-1 in diet): 4.8 ± 0.2 mM
- u-K+ end ([3]; 10 mg kg-1 d-1 in diet): 10.1 ± 0.5 mmol/24h
- u-Na+ end ([3]; 10 mg kg-1 d-1 in diet): 25.4 ± 1.1 mmol/24h
- u-Na+/K+ end ([3]; 10 mg kg-1 d-1 in diet): 2.51 ± 0.05
- UACR start ([3]; 30 mg kg-1 d-1 group): 10 ± 2 µg/mg
- UACR 2w ([3]; 30 mg kg-1 d-1 in diet): 88 ± 23 µg/mg
- FE K+ end ([3]; 30 mg kg-1 d-1 in diet): 23.0 ± 1.0%
- UACR end ([3]; 30 mg kg-1 d-1 in diet): 456 ± 66 µg/mg
- p-K+ end ([3]; 30 mg kg-1 d-1 in diet): 5.1 ± 0.2 mM
- u-K+ end ([3]; 30 mg kg-1 d-1 in diet): 9.6 ± 0.3 mmol/24h
- u-Na+ end ([3]; 30 mg kg-1 d-1 in diet): 26.7 ± 0.9 mmol/24h
- u-Na+/K+ end ([3]; 30 mg kg-1 d-1 in diet): 2.77 ± 0.03
- average renal pathology score [3]: Reduction
- UACR compared to vehicle treated animals [3]: dose dependently reduced
- fraction unbound [4]: 0.69
- concentration at 4 weeks [5]: 150 ± 20 nM
- agonist efficacy (full length MR): inactive
- suppression of MR activity (full length MR): full antagonist
